Measured values: US9695133B2, “Quinazolinone-based oncogenic-RAS-selective lethal compounds and their use” (THE TRUSTEES OF COLUMBIA UNIVERSITY IN THE CITY OF NEW YORK, priority 2012, dated 2017)

System: HT-1080 cells
Assay: Metabolite profiling (LC-MS/MS) upon erastin treatment
Format: cell-based, human
Details: 5 μg/mL erastin 5 h
Experimental: 2 million HT-1080 cells were seeded in 10 cm culture dishes. […] 4 mL of cold 80% methanol was added to the cell monolayer to extract polar metabolites using a cell scraper. The cell lysate/methanol mixture was transferred to a 15 mL tube and centrifuged at 2,000×g at 4° C. for 10 minutes to pellet debris and proteins. The supernatant was transferred to a new tube and stored at −80° C. for liquid chromatography-mass spectrometry/mass spectrometry (LC-MS/MS) analysis. For lipid extract preparation, 3 mL of cold 100% isopropanol was added to the cell monolayer to scrape out cells. The resulting cell lysate/isopropanol mixture was transferred to a new 15 mL tube and centrifuged at 2,000×g at 4° C. for 10 minutes. The cleared supernatant was transferred to a new tube and stored at −20° C. for LC-MS/MS analysis.
The metabolite extract was subjected to LC-MS/MS analysis to determine the quantity of each metabolite in each sample.

CCOc1ccccc1-n1c(C(C)N2CCN(C(=O)COc3ccc(Cl)cc3)CC2)nc2ccccc2c1=O (stereo not drawn) [erastin]
2-aminodipate Erastin/DMSO: 0.6644
2-aminodipate log2 (Erastin/DMSO): −0.59
2′-deoxyadenosine Erastin/DMSO: 0.6549
2′-deoxyadenosine log2 (Erastin/DMSO): −0.6107
2′-deoxycytidine Erastin/DMSO: 1.737
2′-deoxycytidine log2 (Erastin/DMSO): 0.7968
4-hydroxybenzoate Erastin/DMSO: 0.9815
4-hydroxybenzoate log2 (Erastin/DMSO): −0.02693
4-pyridoxate Erastin/DMSO: 1
4-pyridoxate log2 (Erastin/DMSO): 0.0001853
5-HIAA (first entry) Erastin/DMSO: 0.7283
5-HIAA (first entry) log2 (Erastin/DMSO): −0.4574
5-HIAA (second entry) Erastin/DMSO: 1.231
5-HIAA (second entry) log2 (Erastin/DMSO): 0.2997
5-hydroxytryptophan Erastin/DMSO: 0.8725
5-hydroxytryptophan log2 (Erastin/DMSO): −0.1967
ADMA Erastin/DMSO: 0.8585
ADMA log2 (Erastin/DMSO): −0.2201
ADMA/SDMA Erastin/DMSO: 0.8985
ADMA/SDMA log2 (Erastin/DMSO): −0.1543
ADP Erastin/DMSO: 0.9616
ADP log2 (Erastin/DMSO): −0.05643
AMP Erastin/DMSO: 1.071
AMP log2 (Erastin/DMSO): 0.09933
Anthranilic acid Erastin/DMSO: 1.242
Anthranilic acid log2 (Erastin/DMSO): 0.3128
C14:0 CE Erastin/DMSO: 0.7897
C14:0 CE log2 (Erastin/DMSO): −0.3407
C14:0 LPC Erastin/DMSO: 3.625
C14:0 LPC log2 (Erastin/DMSO): 1.858
C14:0 SM Erastin/DMSO: 1.062
C14:0 SM log2 (Erastin/DMSO): 0.08617
C16:0 CE Erastin/DMSO: 0.9643
C16:0 CE log2 (Erastin/DMSO): −0.05248
C16:0 LPC Erastin/DMSO: 3.818
C16:0 LPC log2 (Erastin/DMSO): 1.933
C16:0 SM Erastin/DMSO: 1.03
C16:0 SM log2 (Erastin/DMSO): 0.04281
C16:1 CE Erastin/DMSO: 0.9321
C16:1 CE log2 (Erastin/DMSO): −0.1015
C16:1 LPC Erastin/DMSO: 5.386
C16:1 LPC log2 (Erastin/DMSO): 2.429
C16:1 SM Erastin/DMSO: 0.9808
C16:1 SM log2 (Erastin/DMSO): −0.02798
C18:0 CE Erastin/DMSO: 1.01
C18:0 CE log2 (Erastin/DMSO): 0.01367
C18:0 LPC Erastin/DMSO: 3.335
C18:0 LPC log2 (Erastin/DMSO): 1.738
C18:0 SM Erastin/DMSO: 1.018
C18:0 SM log2 (Erastin/DMSO): 0.02559
C18:1 CE Erastin/DMSO: 0.9198
C18:1 CE log2 (Erastin/DMSO): −0.1206
C18:1 LPC Erastin/DMSO: 3.744
C18:1 LPC log2 (Erastin/DMSO): 1.904
C18:1 SM Erastin/DMSO: 0.925
C18:1 SM log2 (Erastin/DMSO): −0.1125
C18:2 CE Erastin/DMSO: 0.9483
C18:2 CE log2 (Erastin/DMSO): −0.07651
C18:3 CE Erastin/DMSO: 0.9277
C18:3 CE log2 (Erastin/DMSO): −0.1083
C20:3 CE Erastin/DMSO: 0.7864
C20:3 CE log2 (Erastin/DMSO): −0.3467
C20:4 CE Erastin/DMSO: 0.9141
C20:4 CE log2 (Erastin/DMSO): −0.1297
C20:4 LPC Erastin/DMSO: 8.518
C20:4 LPC log2 (Erastin/DMSO): 3.091
C20:5 CE Erastin/DMSO: 0.8407
C20:5 CE log2 (Erastin/DMSO): −0.2504
C22:0 SM Erastin/DMSO: 0.96
C22:0 SM log2 (Erastin/DMSO): −0.0589
C22:1 SM Erastin/DMSO: 0.8374
C22:1 SM log2 (Erastin/DMSO): −0.256
C22:6 CE Erastin/DMSO: 0.7847
C22:6 CE log2 (Erastin/DMSO): −0.3498
C22:6 LPC Erastin/DMSO: 8.456
C22:6 LPC log2 (Erastin/DMSO): 3.08
C24:0 SM Erastin/DMSO: 0.9621
C24:0 SM log2 (Erastin/DMSO): −0.05567
C24:1 SM Erastin/DMSO: 0.8933
C24:1 SM log2 (Erastin/DMSO): −0.1627
C30:0 PC Erastin/DMSO: 0.8954
C30:0 PC log2 (Erastin/DMSO): −0.1594
C30:1 PC Erastin/DMSO: 1.014
C30:1 PC log2 (Erastin/DMSO): 0.01988
C30:2 PC Erastin/DMSO: 0.9467
C30:2 PC log2 (Erastin/DMSO): −0.07901
C32:0 PC Erastin/DMSO: 0.7948
C32:0 PC log2 (Erastin/DMSO): −0.3314
C32:0 PE Erastin/DMSO: 0.9821
C32:0 PE log2 (Erastin/DMSO): −0.0261
C32:1 DAG Erastin/DMSO: 1.055
C32:1 DAG log2 (Erastin/DMSO): 0.07658
C32:1 PC Erastin/DMSO: 0.9998
C32:1 PC log2 (Erastin/DMSO): −0.0003379
C32:1 PE Erastin/DMSO: 1.024
C32:1 PE log2 (Erastin/DMSO): 0.03411
C32:1 PI Erastin/DMSO: 1.261
C32:1 PI log2 (Erastin/DMSO): 0.3346
C32:2 PC Erastin/DMSO: 1.218
C32:2 PC log2 (Erastin/DMSO): 0.2847
C32:2 PE Erastin/DMSO: 1.018
C32:2 PE log2 (Erastin/DMSO): 0.02554
C34:0 PC Erastin/DMSO: 0.7975
C34:0 PC log2 (Erastin/DMSO): −0.3264
C34:0 PE Erastin/DMSO: 0.9533
C34:0 PE log2 (Erastin/DMSO): −0.06907
C34:1 DAG Erastin/DMSO: 0.8823
C34:1 DAG log2 (Erastin/DMSO): −0.1807
C34:1 PC Erastin/DMSO: 0.8993
C34:1 PC log2 (Erastin/DMSO): −0.1531
C34:1 PE Erastin/DMSO: 1.04
C34:1 PE log2 (Erastin/DMSO): 0.05679
C34:1 PI Erastin/DMSO: 1.173
C34:1 PI log2 (Erastin/DMSO): 0.2306
C34:2 DAG Erastin/DMSO: 1.089
C34:2 DAG log2 (Erastin/DMSO): 0.1227
C34:2 PC Erastin/DMSO: 1.049
C34:2 PC log2 (Erastin/DMSO): 0.06833
C34:2 PE Erastin/DMSO: 0.982
C34:2 PE log2 (Erastin/DMSO): −0.02619
C34:2 PI Erastin/DMSO: 1.286
C34:2 PI log2 (Erastin/DMSO): 0.3633
C34:3 PC Erastin/DMSO: 1.134
C34:3 PC log2 (Erastin/DMSO): 0.1814
C34:4 PC Erastin/DMSO: 1.086
C34:4 PC log2 (Erastin/DMSO): 0.119
C36:0 PC Erastin/DMSO: 0.6501
C36:0 PC log2 (Erastin/DMSO): −0.6212
C36:0 PE Erastin/DMSO: 0.9538
C36:0 PE log2 (Erastin/DMSO): −0.06821
C36:0 PI Erastin/DMSO: 1.006
C36:0 PI log2 (Erastin/DMSO): 0.009131
